Results published in patent publication US10550102B2, “Indane and indoline derivatives and the use thereof as soluble guanylate cyclase activators” (NOVARTIS AG, priority 2014, dated 2020).

Target: soluble guanylate cyclase (human GUCYA3 and GUCYB3) overexpressed in CHO cells (Homo sapiens (Human), UniProt Q02153)
Assay: CHO cellular assay (cGMP production, Cisbio cGMP HTRF kit)
Type: cell-based
Details: CHO GUCY clone 8E10, cGMP production, assay buffer with 1 mM IBMX and 20 uM ODQ, 1 h room temperature; minimum quantification limit 0.5 nM (listed 0.5 nM means ≤0.5 nM)
Outline: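 EC50 was derived by 4-parameter sigmoidal fit of cGMP levels, read by HTRF against a standard curve. Compounds were applied for 1 h at room temperature, in buffer with 20 uM ODQ, 1 mM IBMX and 0.1% BSA (0.5% DMSO final). The cells were a stable CHO-K1 line (clone 8E10) overexpressing human GUCYA3 and GUCYB3, seeded at 3000/well.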

Sequence of soluble guanylate cyclase (human GUCYA3 and GUCYB3) overexpressed in CHO cells (Q02108 whole entry partner): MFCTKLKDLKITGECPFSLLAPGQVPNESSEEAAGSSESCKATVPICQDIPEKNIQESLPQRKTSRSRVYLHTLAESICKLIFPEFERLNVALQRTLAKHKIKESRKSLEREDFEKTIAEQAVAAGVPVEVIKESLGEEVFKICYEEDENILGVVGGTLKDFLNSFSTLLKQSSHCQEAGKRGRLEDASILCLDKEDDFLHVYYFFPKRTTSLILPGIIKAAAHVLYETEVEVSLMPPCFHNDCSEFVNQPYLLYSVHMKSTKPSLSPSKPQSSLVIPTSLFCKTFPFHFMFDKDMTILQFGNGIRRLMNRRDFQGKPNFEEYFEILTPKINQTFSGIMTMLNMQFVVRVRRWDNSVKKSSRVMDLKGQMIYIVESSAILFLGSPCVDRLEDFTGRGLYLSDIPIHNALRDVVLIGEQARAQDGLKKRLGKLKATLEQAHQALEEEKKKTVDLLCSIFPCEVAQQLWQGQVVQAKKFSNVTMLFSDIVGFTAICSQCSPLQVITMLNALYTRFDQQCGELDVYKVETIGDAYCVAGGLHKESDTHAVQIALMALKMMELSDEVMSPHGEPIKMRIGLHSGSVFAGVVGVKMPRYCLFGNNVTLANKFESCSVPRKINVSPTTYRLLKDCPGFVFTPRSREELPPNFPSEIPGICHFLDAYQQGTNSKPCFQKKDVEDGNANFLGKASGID
Sequence of soluble guanylate cyclase (human GUCYA3 and GUCYB3) overexpressed in CHO cells (Q02153 whole entry): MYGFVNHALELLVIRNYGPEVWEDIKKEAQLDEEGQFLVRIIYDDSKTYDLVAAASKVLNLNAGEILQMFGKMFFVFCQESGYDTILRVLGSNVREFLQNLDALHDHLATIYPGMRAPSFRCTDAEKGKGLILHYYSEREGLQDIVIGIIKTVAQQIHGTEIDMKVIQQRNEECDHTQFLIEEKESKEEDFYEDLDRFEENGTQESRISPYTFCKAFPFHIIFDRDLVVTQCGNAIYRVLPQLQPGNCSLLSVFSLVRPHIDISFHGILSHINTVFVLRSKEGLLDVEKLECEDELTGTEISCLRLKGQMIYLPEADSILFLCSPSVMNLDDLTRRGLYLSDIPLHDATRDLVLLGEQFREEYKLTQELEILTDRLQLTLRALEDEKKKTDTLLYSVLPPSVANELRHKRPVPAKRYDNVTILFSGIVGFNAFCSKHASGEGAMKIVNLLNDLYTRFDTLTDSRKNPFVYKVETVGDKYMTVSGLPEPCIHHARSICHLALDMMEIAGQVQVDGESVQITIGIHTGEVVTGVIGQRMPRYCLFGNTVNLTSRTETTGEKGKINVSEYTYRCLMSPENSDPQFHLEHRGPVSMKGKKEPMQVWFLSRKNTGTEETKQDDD

| Compound | EC50 [nM] |
| --- | --- |
| O=C(O)c1cnn(-c2cccc(-c3cccc4c3C(Oc3ccc(C5CCN(C(=O)C6CC6)CC5)cc3C(F)(F)F)CC4)n2)c1C(F)(F)F (single isomer, unassigned; enantiomer-1) [61. b). (enantiomer-1), (+)- or (−)-1-(6-(3-(4-(1-(Cyclopropanecarbonyl)piperidin-4-yl)-2-(trifluoromethyl)phenoxy)-2,3-dihydro-1H-inden-4-yl)pyridin-2-yl)-5-(trifluoromethyl)-1H-pyrazole-4-carboxylic acid] | 15 |
| O=C(O)c1cnn(-c2cccc(-c3cccc4c3C(Oc3ccc(C5CCN(C(=O)C6CC6)CC5)cc3C(F)(F)F)CC4)n2)c1C(F)(F)F (single isomer, unassigned; enantiomer-2) [61. b). (enantiomer-2), (−)- or (+)-1-(6-(3-(4-(1-(cyclopropanecarbonyl)piperidin-4-yl)-2-(trifluoromethyl)phenoxy)-2,3-dihydro-1H-inden-4-yl)pyridin-2-yl)-5-(trifluoromethyl)-1H-pyrazole-4-carboxylic acid] | 2 |
| Cc1cc(C2CCN(C(=O)C3CC3)CC2)ccc1CN1CCc2cccc(-c3cccc(-n4ncc(C(=O)O)c4C)n3)c21 [Example 21-1, 1-(6-(1-(4-(1-(Cyclopropanecarbonyl)piperidin-4-yl)-2-methylbenzyl)indolin-7-yl)pyridin-2-yl)-5-methyl-1H-pyrazole-4-carboxylic acid] | ≤ 0.5 |
| (−)-Ethyl-1-(6-(3-((3-ethyl-4-(1-(isopropoxycarbonyl)piperidin-4-yl)phenyl)amino)-2,3-dihydro-1H-inden-4-yl)pyridin-2-yl)-1H-pyrazole-4-carboxylic Acid [Example 51b] | 3 |
